Measurements: publication PMC3673472, “Structural and functional insight into the universal stress protein family” (Evolutionary Applications, 2013)

Columns and labels:
NE1028 = target: T1, NE1028 (Nitrosomonas europaea, UniProt Q82VN8); test: X-ray crystal structure of the complex ([…] Å); settings: cocrystallised with 10 mM AMP, pH 7.0, then soaked with 10 mM AMP for 24 h; ATP-binding site
T1 construct: full-length, N-terminal His6-TEV tag cleaved; wild type (not SeMet) in the AMP complex; homodimer

AF0826 = target: T2, AF0826 (Archaeoglobus fulgidus, UniProt O29432); test: X-ray crystal structure of the complex ([…] Å); settings: SeMet crystals (pH 5.5) soaked with a cocktail of adenine, adenosine, AMP, ADP, ATP, dAMP, cAMP, ADP-ribose; ligand identified from structure; ATP-binding site
T2 construct: gene AF_0826; N-terminal His6-TEV tag kept; selenomethionine-substituted; homodimer; strain printed only for AF1760 of the same species
T2 sequence (O29432 entry or part of it): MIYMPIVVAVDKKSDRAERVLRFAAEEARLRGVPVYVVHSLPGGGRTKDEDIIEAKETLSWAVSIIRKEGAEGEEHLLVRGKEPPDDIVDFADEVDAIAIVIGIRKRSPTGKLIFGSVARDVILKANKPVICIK

T1 sequence (Q82VN8 entry or part of it): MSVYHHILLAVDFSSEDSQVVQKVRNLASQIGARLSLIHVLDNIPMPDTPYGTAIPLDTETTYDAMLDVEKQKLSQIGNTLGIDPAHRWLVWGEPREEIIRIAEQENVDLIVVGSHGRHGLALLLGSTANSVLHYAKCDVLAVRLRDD

Nc1ncnc2c1ncn2[C@@H]1O[C@H](COP(=O)(O)O)[C@@H](O)[C@H]1O [AMP]
X-ray crystal structure of the complex (2.00 Å) (NE1028): Our structure of NE1028–AMP confirms that the protein can bind at least one molecule

Nc1ncnc2c1ncn2[C@H]1C[C@H](O)[C@@H](COP(=O)(O)O)O1 [dAMP]
X-ray crystal structure of the complex (2.10 Å) (AF0826): we obtained the structure of AF0826 with dAMP bound in the vicinity
